The values that follow come from patent US6034236A, “Method for producing of phthalocyanine compound” (Nippon Shokubai Co., Ltd., priority 1997, dated 2000).

The nature of series [1]: Visible absorption spectrum (largest absorption wavelength, ε). It counts as physicochemical.
Series [2] is described as follows: Solubility in 2-ethoxyethanol.

In the case of `[O]=[Ti+2].c1ccc2c(c1)-c1nc-2nc2[n-]c(nc3nc(nc4[n-]c(n1)c1ccccc41)-c1ccccc1-3)c1ccccc21` [Example 13, titanylphthalocyanine], in series [1], the “Largest absorption wavelength in 1-chloronaphthalene” value is 710.5 nm and the “ε at largest absorption wavelength in 1-chloronaphthalene” value was 1.33 × 10^5.

Regarding “tetrakis(2-(2-methoxyethoxy)carbonyl-6-methylphenoxy)dodecachlorovanadyl phthalocyanine [Example 9]”, in series [1], the “Visible absorption spectrum, Thin film” value is on record as 732.0 nm; the “Largest absorption wavelength in 2-ethoxyethanol” value was 712.5 nm; the “ε at largest absorption wavelength in 2-ethoxyethanol” value was 1.10 × 10^5.

Regarding “tetrakis(2-(2-methoxyethoxy)carbonyl-6-methylphenoxy)dodecafluorovanadyl phthalocyanine [Example 5]”, in series [1], the “Visible absorption spectrum, Thin film” value is on record as 732.8 nm; the “Largest absorption wavelength in 2-ethoxyethanol” value amounted to 710.4 nm; the “ε at largest absorption wavelength in 2-ethoxyethanol” value is on record as 1.32 × 10^5.

As to “tetrakis(2-(2-propoxy)carbonyl-6-phenylphenoxy)dodecafluorovanadyl phthalocyanine [Example 1]”, in series [1], the “Visible absorption spectrum, Thin film” value came out at 732.2 nm; the “Largest absorption wavelength in 2-ethoxyethanol” value was 715.0 nm; the “ε at largest absorption wavelength in 2-ethoxyethanol” value is listed as 1.52 × 10^5.

For `Fc1c(F)c(F)c2c(c1F)-c1nc-2nc2[n-]c(nc3nc(nc4[n-]c(n1)c1c(F)c(F)c(F)c(F)c41)-c1c(F)c(F)c(F)c(F)c1-3)c1c(F)c(F)c(F)c(F)c21.[O]=[V+2]` [Example 7, hexadecafluorovanadyl phthalocyanine], in series [1], the “Largest absorption wavelength in 1-chloronaphthalene” value is 710.2 nm and the “ε at largest absorption wavelength in 1-chloronaphthalene” value was 1.89 × 10^5. In series [1] (listed as Example 8), the “Largest absorption wavelength in 1-chloronaphthalene” value amounted to 710.1 nm and the “ε at largest absorption wavelength in 1-chloronaphthalene” value is 1.77 × 10^5.

“tetrakis(2-(2-ethoxyethoxy)carbonyl-6-methoxyphenoxy)dodecafluorovanadyl phthalocyanine [Example 6]”: in series [1], the “Visible absorption spectrum, Thin film” value is listed as 733.0 nm; the “Largest absorption wavelength in 2-ethoxyethanol” value amounted to 715.2 nm; the “ε at largest absorption wavelength in 2-ethoxyethanol” value was 1.37 × 10^5. Also, in series [2], the “Solubility in 2-ethoxyethanol” value is recorded as 13 wt. %.

“octakisphenylthiooctafluorovanadyl phthalocyanine [Example 10]”: the “Largest absorption wavelength in toluene” value in series [1] (in toluene) is listed as 770 nm.

In the case of “tetrakis(2-(2-tetrahydrofurfuryloxy)-carbonyl-6-phenylphenoxy)dodecafluorovanadyl phthalocyanine [Example 4]”, in series [1], the “Visible absorption spectrum, Thin film” value worked out at 732.3 nm; the “Largest absorption wavelength in 2-ethoxyethanol” value was determined as 714.7 nm; the “ε at largest absorption wavelength in 2-ethoxyethanol” value is on record as 1.22 × 10^5.

“tetrakis(2-(2-ethoxyethoxy) dodecafluorovanadyl phthalocyanine [Example 14]”: in series [1], the “Largest absorption wavelength in 2-ethoxyethanol” value is 709.0 nm and the “ε at largest absorption wavelength in 2-ethoxyethanol” value is listed as 1.26 × 10^5.

In the case of “tetrakis(2-(2-methoxyethoxy)carbonyl-6-phenylphenoxy)dodecafluorovanadyl phthalocyanine [Example 3]”, in series [1], the “Visible absorption spectrum, Thin film” value is given as 730.6 nm; the “Largest absorption wavelength in 2-ethoxyethanol” value is 713.7 nm; the “ε at largest absorption wavelength in 2-ethoxyethanol” value is given as 1.42 × 10^5.

Turning to `Clc1c(Cl)c(Cl)c2c(c1Cl)-c1nc-2nc2[n-]c(nc3nc(nc4[n-]c(n1)c1c(Cl)c(Cl)c(Cl)c(Cl)c41)-c1c(Cl)c(Cl)c(Cl)c(Cl)c1-3)c1c(Cl)c(Cl)c(Cl)c(Cl)c21.[O]=[V+2]` [Example 12, hexadecachlorovanadylphthalocyanine], in series [1], the “Largest absorption wavelength in 1-chloronaphthalene” value came out at 712.4 nm and the “ε at largest absorption wavelength in 1-chloronaphthalene” value is reported as 1.65 × 10^5.

For the compound “octaphenoxyoctafluorovanadyl phthalo-cyanine [Example 11]”, the “Largest absorption wavelength in acetone” value in series [1] (in acetone) amounted to 720 nm.

“tetrakis(2-(1,3-dibromo-2-propoxy)-carbonyl-6-phenylphenoxy)dodecafluorovanadyl phthalocyanine [Example 2]”: in series [1], the “Visible absorption spectrum, Thin film” value was 731.6 nm; the “Largest absorption wavelength in 2-ethoxyethanol” value is on record as 714.5 nm; the “ε at largest absorption wavelength in 2-ethoxyethanol” value is on record as 1.75 × 10^5.
